Data set [1] is described as follows: Continuous absorption spectra of flavonoids, cannabinoids and chlorophylls. The note with it: continuous absorption spectrum, FIG. 3A/3B. Type of data set: physicochemical. The text has this: (§1) For the in vitro validation of the Sequential Photonic Transfer (SPT) process, different molecules belonging to the groups of plant-derived compounds previously identified as potential targets have been selected. In particular, the selected molecules are morin and quercetin (flavonoids), cannabinol (CBN), cannabidiol (CBD), and cannabichromene (CBC) (cannabinoids), and chlorophyll A, which are fully representative examples of each target compound group. […] Flavonoids typically have absorption peaks around 260 and 380 nm, while cannabinoids have absorption peaks between 230 and 300 nm (FIG. 3A). […] For these compounds, their emission capacity at 460 nm (blue light) when excited by 280 and 320 nm light (UVB/A) and their emission capacity at 625 nm (red light) when excited by 460 nm light have been evaluated using spectrofluorimetry.
(§2) FIG. 3. […] Spectrofluorimetric quantification in hydroalcoholic standard solutions of emission at 460 nm (blue region of the electromagnetic spectrum) of different compounds after excitation at 280 or 320 nm (UVB/A) (C) and of emission at 625 nm (red region of the electromagnetic spectrum) after excitation at 460 nm (D) (Mn: Morin; Qc: Quercetin; CBD: cannabidiol; CBN: cannabinol; CBC: cannabichromene; Cl: chlorophyll A).

A short description of data set [2]: Spectrofluorimetric quantification of emission in hydroalcoholic standard solutions. Type of data set: physicochemical.
From the text: as §1, §2

Data set [3] in a line: In vitro ROS production by colorimetric Nitro Blue Tetrazolium (NBT) oxidation in hydroalcoholic solution. The note with it: excited with UV light (310 nm), FIG. 4. The text has this:
NBT is a specific molecular sensor for superoxide anion production, which is the first type of ROS produced during the reduction of molecular oxygen to generate water. In the presence of superoxide anion, NBT, a colorless molecule in its reduced state, oxidizes to form a chromophore with an absorption peak at 540 nm. The degree of oxidation, and therefore the absorbance at 540 nm, is directly proportional to ROS production. […] However, the combination of flavonoids/cannabinoids, chlorophyll A, and PpIX excited with UV light (310 nm) induces a potent and significant ROS production equivalent to that obtained by exciting PpIX with red light (FIG. 4).
FIG. 4. Quantification of in vitro ROS production measured as absorbance at 540 nm of Nitro Blue Tetrazolium (NBT) compound oxidized by […] production in hydroalcoholic solutions of different compound combinations under basal conditions or excited with UV (310 nm) or red (635 nm) light. Results are expressed as mean+/−standard deviation of three independent experiments. *, […]; ***, P≤0.01 (PpIX: Protoporphyrin IX; Mn: Morin; CBD: cannabidiol; Cl: chlorophyll A).

Data set [4] deals with primary fibroblasts. Kind of data set: Summary of examples: UVB radiation of primary fibroblasts. Type of data set: cell-based. The note with it: summary statement on the examples.

Consider `C=Cc1c(C)c2cc3nc(c4c5[n-]c(cc6nc(cc1[n-]2)C(C)=C6CC)c(C)c5C(=O)[C@@H]4C(=O)OC)[C@@H](CCC(=O)OC/C=C(\C)CCC[C@H](C)CCC[C@H](C)CCCC(C)C)[C@@H]3C.[Mg+2]` [chlorophyll A], for which the absorption peaks result in data set [1] is given as “around 450 nm”. In addition, the “emission at 460 nm (blue light)” value in data set [2] (excited by 280 and 320 nm light (UVB/A), FIG. 3C) is given as “no emission of blue light”. Besides, the “emission at 625 nm (red light)” value in data set [2] (excited by 460 nm light (blue), FIG. 3D) is recorded as “strong emission of red light”. Also, in data set [3], the “ROS production (NBT oxidation, absorbance at 540 nm)” value is listed as “unable to induce significant NBT oxidation”. In data set [4], the “protection of cells from UVB radiation” value was “neither capable of protecting against UVB radiation”; the “stimulation of proliferation and extracellular matrix protein synthesis” value was “nor stimulating cells in any way”.

Take `C=Cc1c(C)c2cc3nc(c4c5[n-]c(cc6nc(cc1[n-]2)C(C=O)=C6CC)c(C)c5C(=O)[C@@H]4C(=O)OC)[C@@H](CCC(=O)OC/C=C(\C)CCC[C@H](C)CCC[C@H](C)CCCC(C)C)[C@@H]3C.[Mg+2]` [chlorophyll B]: in data set [1], the absorption peaks entry is listed as “around 450 nm”.

For the origin of these results see patent publication US20250288509A1, “Composition for Promoting Photoprotection and Cutaneous Regeneration through Sequential Photonic Transfer (SPT)” (priority 2022, published 2025).
